The source made the active and inactive calls. The rule behind the calls is not given here.
Assays:
[1] = test system: NB-4; test: Induction of apoptosis in human NB4 cells assessed as viable cells at 9 uM preincubated for 1 hrs followed by replacement with fresh culture medium and measured after 24 hrs by Annexin V-FITC/7AAD staining based flow cytometry assay (reference value: 94%); assay type: functional; details: read-out: Activity
[2] = target: T1, PML-RARalpha (Homo sapiens) (UniProt P10276+P29590); test: Induction of PML/RARalpha degradation in human NB4 cells assessed as residual protein level at 0.3 uM incubated for 1 hrs followed by replacement with fresh culture medium and measured after 16 hrs by Western blot analysis (reference value: 1); assay type: cell-based
T1 sequence (P10276 whole entry, looked up): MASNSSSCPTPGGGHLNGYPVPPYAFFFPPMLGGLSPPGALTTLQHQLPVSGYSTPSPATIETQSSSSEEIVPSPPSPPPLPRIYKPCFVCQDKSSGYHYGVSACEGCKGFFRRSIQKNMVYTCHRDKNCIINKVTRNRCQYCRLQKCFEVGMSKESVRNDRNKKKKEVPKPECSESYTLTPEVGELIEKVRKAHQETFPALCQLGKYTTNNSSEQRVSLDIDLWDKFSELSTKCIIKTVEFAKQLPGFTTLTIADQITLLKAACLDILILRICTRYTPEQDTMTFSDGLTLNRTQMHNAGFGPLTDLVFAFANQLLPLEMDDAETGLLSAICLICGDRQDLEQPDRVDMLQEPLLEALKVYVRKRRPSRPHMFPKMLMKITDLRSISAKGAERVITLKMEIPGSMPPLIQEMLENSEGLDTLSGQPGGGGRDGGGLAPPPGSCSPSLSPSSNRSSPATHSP
T1 sequence (P29590 whole entry, looked up): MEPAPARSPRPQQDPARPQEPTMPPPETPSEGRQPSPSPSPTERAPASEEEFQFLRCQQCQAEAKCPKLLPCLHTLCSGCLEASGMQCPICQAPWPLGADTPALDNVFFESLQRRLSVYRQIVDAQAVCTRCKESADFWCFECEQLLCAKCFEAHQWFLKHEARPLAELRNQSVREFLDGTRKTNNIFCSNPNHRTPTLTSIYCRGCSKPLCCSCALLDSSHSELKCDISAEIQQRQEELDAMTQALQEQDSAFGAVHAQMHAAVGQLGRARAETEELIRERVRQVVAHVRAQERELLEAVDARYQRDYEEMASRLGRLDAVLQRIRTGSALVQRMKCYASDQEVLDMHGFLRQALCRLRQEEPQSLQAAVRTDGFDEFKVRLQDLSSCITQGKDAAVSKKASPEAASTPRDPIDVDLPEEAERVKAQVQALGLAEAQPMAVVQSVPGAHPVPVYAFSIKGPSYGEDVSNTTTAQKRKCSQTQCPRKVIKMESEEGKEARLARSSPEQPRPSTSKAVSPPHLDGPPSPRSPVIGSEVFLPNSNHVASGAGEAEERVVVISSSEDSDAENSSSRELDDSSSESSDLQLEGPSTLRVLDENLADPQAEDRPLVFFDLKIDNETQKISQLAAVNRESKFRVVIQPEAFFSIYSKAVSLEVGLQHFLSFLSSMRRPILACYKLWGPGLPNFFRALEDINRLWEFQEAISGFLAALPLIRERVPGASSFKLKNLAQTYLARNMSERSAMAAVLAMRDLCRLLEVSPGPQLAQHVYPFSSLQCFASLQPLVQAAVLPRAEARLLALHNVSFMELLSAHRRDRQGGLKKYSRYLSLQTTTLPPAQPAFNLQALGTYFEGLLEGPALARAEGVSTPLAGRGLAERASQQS

[3] = target: T1, PML-RARalpha (Homo sapiens); test: Induction of PML/RARalpha degradation in human NB4 cells assessed as downregulation of P2RY2 mRNA expression incubated for 1 hrs followed by replacement with fresh culture medium for 6 hrs by RT-qPCR analysis; assay type: cell-based; details: dose 0.3-3 µM
[4] = target: T1, PML-RARalpha (Homo sapiens); test: Induction of PML/RARalpha degradation in human NB4 cells assessed as downregulation of FCGR1B mRNA expression incubated for 1 hrs followed by replacement with fresh culture medium for 6 hrs by RT-qPCR analysis; assay type: cell-based; details: dose 0.3-3 µM
[5] = test system: NB-4; test: Induction of granulocytic differentiation in human NB4 cells assessed as increase in CD11b expression at 3 uM incubated for 1 hrs followed by replacement with fresh culture medium for 48 hrs by flow cytometry analysis (reference value: 1.44%); assay type: functional
[6] = test system: NB-4; test: Induction of apoptosis in human NB4 cells assessed as early apoptotic cells at 27 uM preincubated for 1 hrs followed by replacement with fresh culture medium and measured after 24 hrs by Annexin V-FITC/7AAD staining based flow cytometry assay (reference value: 2.15%); assay type: functional
[7] = test system: U-937; test: Upregulation of PUMA mRNA expression in human U-937 cells overexpressing p53-V272M mutant pretreated for 1 hr followed by culturing in fresh medium for 4 hrs by RT-qPCR analysis; assay type: functional, cell-based
[8] = test system: U-937; test: Upregulation of PUMA protein expression in human U-937 cells overexpressing p53-V272M mutant at 0.1 to 0.5 uM pretreated for 1 hr followed by culturing in fresh medium for 16 hrs by Western blot analysis; assay type: functional, cell-based; details: dose 0.1-0.5 µM
[9] = test system: HL-60; test: Upregulation of PUMA mRNA expression in human HL-60 cells overexpressing p53-V272M mutant at 2 uM pretreated for 1 hr followed by culturing in fresh medium for 8 hrs by RT-qPCR analysis; assay type: functional, cell-based
[10] = test system: NCI-H1299; test: Upregulation of PUMA protein expression in human NCI-H1299 cells overexpressing p53-V272M mutant pretreated for 1 hr followed by culturing in fresh medium for 16 hrs by Western blot analysis; assay type: functional, cell-based
[11] = test system: NCI-H1299; test: Upregulation of p21 protein expression in human NCI-H1299 cells overexpressing p53-V272M mutant pretreated for 1 hr followed by culturing in fresh medium for 16 hrs by Western blot analysis; assay type: functional, cell-based
[12] = test system: U-937; test: Induction of extrinsic apoptosis in human U-937 cells overexpressing p53-V272M mutant assessed as upregulation of FAS gene expression by RT-qPCR analysis; assay type: functional, cell-based
[13] = test system: U-937; test: Induction of apoptosis in human U-937 cells harboring p53-V272M mutant assessed as increase in early apoptotic cells at 0.5 to 8 uM pretreated for 1 hr followed by culturing in fresh medium for 24 hrs by Annexin V-FITC/7AAD staining based flow cytometry analysis; assay type: functional, cell-based; details: dose 0.5-8 µM
[14] = test system: U-937; test: Induction of apoptosis in human U-937 cells harboring p53-V272M mutant assessed as increase in late apoptotic cells at 0.5 to 8 uM pretreated for 1 hr followed by culturing in fresh medium for 24 hrs by Annexin V-FITC/7AAD staining based flow cytometry analysis; assay type: functional, cell-based; details: dose 0.5-8 µM
[15] = test system: U-937; test: Induction of senescence in human U-937 cells harboring p53-V272M mutant assessed as increase in SA-beta-gal positive cells at 0.5 to 8 uM pretreated for 1 hr followed by culturing in fresh medium for 8 hrs by […] microscopic analysis; assay type: functional, cell-based; details: dose 0.5-8 µM
[16] = test system: NCI-H1299; test: Inhibition of colony formation in human NCI-H1299 cells harboring p53-V272M mutant at 2 to 32 uM pretreated for 1 hr followed by culturing in fresh medium and measured on day 7 by crystal violet staining based assay; assay type: functional, cell-based; details: dose 2-32 µM
[17] = Drug uptake in human HPDE6c7 cells at 10 uM measured after 10 mins by ICP-MS analysis; assay type: ADME, cell-based; details: hpde6c7, 10 min
[18] = Drug uptake in human U-937 cells harboring p53-V272M mutant at 10 uM measured after 10 mins by ICP-MS analysis; assay type: ADME, cell-based; details: u-937, 10 min
[19] = test system: U-937; test: Antitumor activity against luciferase transduced human U-937 cells harboring p53 V272M mutant xenografted in M-NSG mouse assessed as median survival at 10 mg/kg, iv administered daily for 11 days (reference value: 11 day); assay type: functional
[20] = Toxicity in M-NSG mouse xenografted with luciferase transduced human U-937 cells harboring p53 V272M mutant assessed as reduction in body weight at 10 mg/kg, iv measured for 8 days post administration; assay type: organism-based; details: in vivo, 192 h, time 8 day
[21] = test system: U-937; test: Antitumor activity against GFP-tagged human U-937 cells harboring p53 V272M mutant xenografted in M-NSG mouse assessed as decrease in leukemia cell population in bone marrow at 25 mg/kg, ip administered for 9 days starting from 7 days post inoculation and measured on day 2,6,and 9 by FACS analysis; assay type: functional, organism-based; details: time 9.0 day
[22] = Plasma stability in mouse assessed as half life at […] measured upto 120 mins by LC-MS analysis; assay type: ADME, cell-free
[23] = Plasma stability in monkey assessed as half life at […] measured upto 120 mins by LC-MS analysis; assay type: ADME, cell-free, Macaca mulatta; details: rhesus monkey
[24] = Plasma stability in human assessed as half life at […] measured upto 120 mins by LC-MS analysis; assay type: ADME, cell-free
[25] = Drug uptake in human MDA-MB-231 cells assessed as fold increase in arsenic accumulation at 10 uM incubated for 10 mins by ICP-MS analysis; assay type: ADME, cell-based; details: mda-mb-231, 10 min
[26] = test system: HepG2; test: Impairment of thiol-mediated drug uptake in human HepG2 cells assessed as reduction in arsenic level at 10 uM pretreated with N-ethylmaleimide for 30 mins followed by compound addition and measured after 10 mins by ICP-MS analysis relative to control; assay type: ADME, cell-based; parameters: scale not given: the % may be the effect or the level left; details: hepg2, 10 min
[27] = test system: Cellular tumor antigen p53 (Homo sapiens), P04637 [V272M]; test: Restoration of p53-V272M mutant transcriptional activity on PUMA promoter in human NCI-H1299 cells harboring siRNA-mediated CKAP4 knockdown incubated for 24 hrs by firefly/renilla based luciferase reporter assay; assay type: cell-based
[28] = test system: Cellular tumor antigen p53 (Homo sapiens), P04637 [V272M]; test: Restoration of p53-V272M mutant transcriptional activity on PUMA promoter in human NCI-H1299 cells at 2.5 to 10 uM pretreated with methyl-beta-cyclodextrin for 30 mins followed by compound addition for 10 mins and further incubation in fresh medium for 24 hrs by firefly/renilla based luciferase reporter assay; assay type: cell-based; details: dose 2.5-10 µM
[29] = test system: Cellular tumor antigen p53 (Homo sapiens), P04637 [V272M]; test: Restoration of p53-V272M mutant transcriptional activity on PUMA promoter in human NCI-H1299 cells at 2.5 to 10 uM pretreated with chlorpromazine for 30 mins followed by compound addition for 10 mins and further incubation in fresh medium for 24 hrs by firefly/renilla based luciferase reporter assay; assay type: cell-based; details: dose 2.5-10 µM

In the case of `CC(=O)OC[C@H]1O[C@@H](S[As]2SCCS2)[C@H](OC(C)=O)[C@@H](OC(C)=O)[C@@H]1OC(C)=O`, the viability at 9 µM [1] is reported as 85.6%, the Activity [2] is reported as 0.42 and the Activity [3] is reported as “Dose-Dependent Effect”. The Activity [4] was “Dose-Dependent Effect”, the Activity [5] was 32.9% and the Activity [6] was 15.6%. For the same compound, the Activity [7] was “Active”, the Activity [8] was “Active” and the Activity [9] was “Active”. For the same compound, the Activity [10] was “Active”, the Activity [11] was “Active” and the Activity [12] was “Active”. The Activity [13] was “Active”, the Activity [14] was “Active” and the Activity [15] was “inactive”. The inhibition [16] was “Active”, the Drug uptake [17] was “Active” and the Drug uptake [18] was “Active”. The MST [19] was 16 days, the Activity [20] was “Non-Toxic” and the Activity [21] was “Active”. The half-life [22] was 13.4 min, the half-life [23] was 11.3 min and the half-life [24] was 16.1 min. The “fold change (FC)” value [25] was 19, the Activity [26] was ~ 90% and the Activity [27] was “inactive”. For the same compound, the Activity [28] was “inactive” and the Activity [29] was “inactive”.

Source: ChEMBL document CHEMBL5375988, “AcGlcAs: A Novel P53-Targeting Arsenical with Potent Cellular Uptake and Cancer Cell Selectivity” (J Med Chem, 2023)
